Experimental data from patent publication US20120094311A1, “GENE AND PROTEIN EXPRESSION PROFILES ASSOCIATED WITH THE THERAPEUTIC EFFICACY OF EGFR-TK INHIBITORS” (priority 2007, published 2012).

System: tumor cells derived from NSCLC tumors of patients shown to be responsive to gefitinib
Assay: Xenograft array: SCID mice bearing patient-derived NSCLC tumors treated with IRESSA
Format: in vivo
Conditions: SCID mice injected with patient-derived NSCLC tumor cells; injected with 200 mg/kg of IRESSA
Procedure: Positive expression was also confirmed using a Xenograft array. To make this array, SCID mice were injected with tumor cells derived from NSCLC tumors of patients shown to be responsive to gefitinib (IRESSA®), and tumors were allowed to grow. The mice then were injected with 200 mg/kg of IRESSA®, and the mice were monitored to observe responsiveness to the drug.

## COc1cc2ncnc(Nc3ccc(F)c(Cl)c3)c2cc1OCCCN1CCOCC1 [IRESSA, gefitinib]
  tumors formed in the SCID mice after treatment: reduced or eliminated
